Measured values taken from patent publication US7160733B2, “Ligand specific to β2-glycoprotein I and use thereof” (priority 2001, dated 2007).

T1: β2-GPI (Homo sapiens, UniProt P02749)
T1 construct: β2-GPI was purified from normal human plasma as described in [35] with slight modification; from tissue; host or cells: pooled normal human plasma from healthy subjects
T1 sequence (P02749 20-345): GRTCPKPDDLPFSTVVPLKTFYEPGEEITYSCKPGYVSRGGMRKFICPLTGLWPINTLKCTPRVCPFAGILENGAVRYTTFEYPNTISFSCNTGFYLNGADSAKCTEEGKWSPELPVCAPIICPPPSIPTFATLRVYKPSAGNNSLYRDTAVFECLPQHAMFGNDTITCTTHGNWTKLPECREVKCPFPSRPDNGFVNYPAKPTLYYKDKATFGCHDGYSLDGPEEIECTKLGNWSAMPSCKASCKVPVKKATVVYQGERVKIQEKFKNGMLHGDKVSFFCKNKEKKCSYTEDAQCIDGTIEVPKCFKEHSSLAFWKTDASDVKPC

B1: Ovalbumin: control protein added in Experiment 2 (protein, UniProt P01012 2-386, looked up)
Ovalbumin: GSIGAASMEFCFDVFKELKVHHANENIFYCPIAIMSALAMVYLGAKDSTRTQINKVVRFDKLPGFGDSIEAQCGTSVNVHSSLRDILNQITKPNDVYSFSLASRLYAEERYPILPEYLQCVKELYRGGLEPINFQTAADQARELINSWVESQTNGIIRNVLQPSSVDSQTAMVLVNAIVFKGLWEKAFKDEDTQAMPFRVTEQESKPVQMMYQIGLFRVASMASEKMKILELPFASGTMSMLVLLPDEVSGLEQLESIINFEKLTEWTSSNVMEERKIKVYLPRMKMEEKYNLTSVLMAMGITDVFSSSANLSGISSAESLKISQAVHAAHAEINEAGREVVGSAEAGVDAASVSEEFRADHPFLFCIKHIATNAVLFFGRCVSP

Columns and labels:
[1] = system: β2-GPI; experiment: ELISA on solid-phase lipid (ligand)-coated plate: β2-GPI binding detected with Cof-22; set-up: species or system human; details: Experiment 2; Absorbance, mean ± SD, n = 3; synthesized oxLig-1-solidified plate, added protein 15 μg/mL
Procedure: (§1) Binding to extracted lipids: A microtiter plate (Immulon 1B, Dynex Technologies Inc.) was coated with lipids extracted from LDLs (50 μg/mL, 50 μL/well) by ethanol evaporation. The wells were blocked with PBS containing 1% BSA for one hour and the wells were incubated with 30 μg/mL of β2-GPI for one hour. Then, β2-GPI binding was detected using Cof-22 and HRP-labeled anti-mouse IgG antibodies. Alternatively, an anti-β2-GPI autoantibody (Cof-22, WB-CAL-1, or EY2C9) was diluted with a 0.3% BSA-containing PBS, and the diluted antibody was added to the coated plate (1.0 μg/mL, 100 μL/well) and incubated with β2-GPI (15 μg/mL) for one hour. The binding of the antibody was detected by an HRP-labeled anti-mouse IgG /or an anti-human IgM. The color was developed with H2O2 and o-phenylenediamine, and OD was measured at 490 nm. Between these steps, extensive washing were done using PBS containing 0.05% Tween 20.
(§2) Synthesized oxLig-1 (50 μg/mL, 50 μL/well) was adsorbed by evaporation on a polystyrene plate (Immulon 1B; Dynex Technologies Inc.), and the plate was then blocked with 1% BSA. Serum samples (diluted 1:100 with PBS containing 0.3% BSA) were incubated in the wells with β2-GPI (15 μg/mL) or other proteins for one hour at room temperature. Antibody binding was detected with HRP-labeled anti-human IgG. Further steps were performed through a method as described in “anti-β2-GPI ELISA.”
(§3) CL (50 μg/mL, 50 μL/well) was adsorbed on a polystyrene plate (Immulon 1B), and further steps were performed through a method as described in “ELISA for antibodies against a protein-oxLig-1 complex.”

[2] = system: WB-CAL-1; experiment: ELISA on solid-phase lipid (ligand)-coated plate: WB-CAL-1 binding in presence of β2-GPI; set-up: species or system mouse; details: Absorbance, mean ± SD, n = 3; for Binding of protein-dependent oxLig-1 antibody, WB-CAL-1: Experiment 2, synthesized oxLig-1-solidified plate, added protein 15 μg/mL
Procedure: as §1, §2, §3

[3] = system: EY2C9; experiment: ELISA on solid-phase lipid (ligand)-coated plate: EY2C9 binding in presence of β2-GPI; set-up: species or system human; details: Absorbance, mean ± SD, n = 3; for Binding of protein-dependent oxLig-1 antibody, EY2C9: Experiment 2, synthesized oxLig-1-solidified plate, added protein 15 μg/mL
Procedure: as §1, §2, §3

[4] = system: APS-1; experiment: ELISA on solid-phase lipid-coated plate: binding of antibodies of APS patient serum APS-1; set-up: species or system human; details: Absorbance, mean ± SD, n = 3; for Binding of protein-dependent oxLig-1 antibody, APS-1: Experiment 2, synthesized oxLig-1-solidified plate, added protein 15 μg/mL
Procedure: (§4) To eliminate endogenous β2-GPI in some experiments, serum samples were passed through a heparin-Sepharose column. The effluent was dialyzed against PBS and was used for ELISAs.
as §2, §3

[5] = system: APS-2; experiment: ELISA on solid-phase lipid-coated plate: binding of antibodies of APS patient serum APS-2; set-up: species or system human; details: Absorbance, mean ± SD, n = 3; for Binding of protein-dependent oxLig-1 antibody, APS-2: Experiment 2, synthesized oxLig-1-solidified plate, added protein 15 μg/mL
Procedure: as §4, §2, §3

[6] = system: anti-β2-GPI antibodies; experiment: ELISA of the anti-β2-GPI antibodies by use of a ligand-coated plate (results in words); assay type: binding
Procedure: as §1, §2

[7] = target: T1, β2-GPI; experiment: Optical biosensor (IAsys): binding to solid phase β2-GPI; details: result in words
Text: (§5) FIG. 1. Molecular interactions among β2-GPI, LDLs, […] (PLs), and anti-β2-GPI autoantibody, detected by an optical biosensor. • A: LDL (open square) or oxLDL (closed square) binding to solid phase β2-GPI; • B: LDL (open square) or oxLDL (closed square) binding to solid phase WB-CAL-1 in the presence of β2-GPI; • C: DOPE (open circle) or CL (closed circle) binding to solid phase β2-GPI; and • D: DOPE (open circle) or CL (closed circle) binding to solid phase WB-CAL-1 in the presence of β2-GPI.
(§6) Real-time molecular analysis was performed using an optical biosensor, IAsys (product of Affinity Sensors).
(§7) Binding of β2-GPI to LDLs or liposomes: Biotinyl-β2-GPI was immobilized on a biotinyl-cuvette via streptavidin. LDLs or liposomes at various concentrations were placed in the cuvette. Antibodies binding to LDLs or liposomes: The biotinyl-WB-CAL-1 was immobilized on the cuvette. LDLs or liposomes were added at various concentrations in the presence (10 μg/mL) or absence of β2-GPI.

[8] = system: WB-CAL-1; experiment: Optical biosensor (IAsys): binding to solid phase WB-CAL-1 in the presence of β2-GPI; set-up: species or system mouse; details: β2-GPI 10 μg/mL, result in words
Text: as §5, §6, §7

[9] = target: T1, β2-GPI; experiment: ELISA on solid-phase lipid (ligand)-coated plate: β2-GPI binding detected with Cof-22; details: Experiment 1; Absorbance, mean ± SD, n = 3; solid-phase lipid, β2-GPI 15 μg/mL
Procedure: as §1, §2, §3

[10] = Experiment 1, solid-phase lipid, β2-GPI 15 μg/mL
[11] = Experiment 1, solid-phase lipid, β2-GPI 15 μg/mL, serum with β2-GPI removed

Molecule	Binding of protein-dependent oxLig-1 antibody, Cof-22 [1]	Binding of protein-dependent oxLig-1 antibody, WB-CAL-1 [2]	Binding of protein-dependent oxLig-1 antibody, EY2C9 [3]	Binding of protein-dependent oxLig-1 antibody, APS-1 [4]	Binding of protein-dependent oxLig-1 antibody, APS-2 [5]	antibody binding to solid-phase oxLig-1 provided by added protein ([6]; Exp-2, result in words)	binding to solid phase β2-GPI [7]	binding to solid phase WB-CAL-1 in the presence of β2-GPI [8]	Binding of β2-GPI-dependent aCL, Cof-22 [9]	Binding of β2-GPI-dependent aCL, WB-CAL-1 [2, 10]	Binding of β2-GPI-dependent aCL, EY2C9 [3, 10]	Binding of β2-GPI-dependent aCL, APS-1 [4, 11]	Binding of β2-GPI-dependent aCL, APS-2 [5, 11]	cross-reaction of autoantibodies derived from APS with β2-GPI complexed with lipid ([6]; result in words)
Haptoglobin: protein having sushi domains, without PL binding property	0.049 ± 0.001	0.006 ± 0.001	0.006 ± 0.001	0.018 ± 0.011	0.015 ± 0.002	no antibody binding	–	–	–	–	–	–	–	–
CCCCCCCC/C=C\CCCCCCCC(=O)OC[C@H](COP(=O)(O)OCCN)OC(=O)CCCCCCC/C=C\CCCCCCCC [DOPE]	–	–	–	–	–	–	did not show any specific binding	did not	–	–	–	–	–	–
Cardiolipin [CL, reference compound]	–	–	–	–	–	–	large extent of binding	dose-dependent binding	1.132 ± 0.025	1.361 ± 0.008	1.269 ± 0.014	2.099 ± 0.216	1.282 ± 0.041	cross-reacted
B1	0.042 ± 0.001	0.006 ± 0.002	0.004 ± 0.002	0.009 ± 0.004	0.016 ± 0.001	–	–	–	–	–	–	–	–	–
